We go through one compound from PMC5471252, “Anti-leukemia activity of a Hsp70 inhibitor and its hybrid molecules” (Scientific Reports, 2017).

“Also recorded” adds a separate entry of the source.

Assay [1] deals with Ba/F3 cells producing imatinib-resistant mutant Bcr-Abl (T315I). Description: MTT assay, Ba/F3 cells producing mutant Bcr-Abl (T315I). The class given is cell-based, murine. To be noted: Mus musculus, BaF3, 24 h, read-out: IC50 values, cytotoxicity towards cells expressing mutant Abl. The protocol:
Next, the cytotoxic effects of Az on wild-type and mutant Bcr-Abl expressing cells were evaluated.
(§1) Cells were exposed to each compound (a HCl salt form) at various concentrations for indicated time periods (24 or 48 h) in culture media. MTT assays were conducted according to known procedures. The absorbance at 570 nm was determined by employing a microplate reader (TECAN, Infinite® 200 PRO).
Cells were treated with various concentrations of each compound for 24 h. Cell death was measured by using an MTT assay (mean ± s.d., n = 3).
A general note: Tetrazolium dyes change colour on reduction, which living cells bring about.

The test system of assay [2] is HL-60 cells. Description: MTT assay, cell viability of HL-60 cells. The assay is classed as cell-based. The settings on record: Homo sapiens, 48 h, mean ± s.d., n = 3, read-out: IC50 values of compounds for leukemia cells.
The test system of assay [3] is U937 cells. Put plainly: MTT assay, cell viability of U937 cells. The class given is cell-based. To be noted: Homo sapiens, U-937, 48 h, mean ± s.d., n = 3, read-out: IC50 values of compounds for leukemia cells.
Assay [4] has as its system HL-60 and K562 cells. Put plainly: Flow cytometry, JC-1 mitochondrial membrane potential. The assay is classed as cell-based, human. To be noted: 24 h; 10 µM Az or 4 µM Az-O3-GD. The protocol:
(§2) To determine whether Az promotes leukemia cell death via apoptosis, acute leukemia HL-60 and chronic leukemia K562 cells were independently incubated with Az. The treated cells were then exposed to a mixed solution of fluorescein-annexin V and propidium iodide (PI) and flow cytometry analysis was conducted. […] The size of the treated cells was also assessed by using flow cytometry. […] We also investigated if the mitochondrial membrane potential in cells treated with Az is disrupted. To test this possibility, HL-60 and K562 cells were exposed to Az and subsequently stained with a membrane potential sensitive JC-1 probe. […] This serves as another evidence for apoptosis induced by Az.
JC-1 staining: HL-60 and K562 cells were treated with each compound and then with 2.5 μg/mL JC-1 (Anaspec) in PBS for 15 min. Flow cytometry was conducted with a BD FACSVerse™ instrument (the red fluorescence signal: λex = 550 nm, λem = 600 nm; the green fluorescence signal: λex = 485 nm, λem = 535 nm) and the data were analyzed using a FlowJo™ software.
In general terms: In flow cytometry, cells or beads pass a laser one at a time.

In assay [5] the test system is AIF translocation in HL-60 and K562 cells. Put plainly: AIF translocation to the nucleus (western blot, immunocytochemistry). The class given is cell-based, human. To be noted: 24 h; 2 μM for Az-O3-GD. An excerpt: Apoptosis-inducing factor (AIF) is known to be translocated from the cytosol to the nucleus during caspase-independent apoptosis (Supplementary Fig. S8b)[39]. In addition, it is also known that Hsp70 interacts with AIF directly and this interacting event results in blocking translocation of AIF to the nucleus and, in turn, prevents caspase-independent apoptosis. Because of these phenomena, we tested if Az has an influence on AIF-mediated caspase-independent apoptosis. To probe this issue, HL-60 and K562 cells were exposed to Az and the levels of AIF in the cytosolic and nuclear fractions were then determined. AIF translocation to the nucleus was not observed in Az-treated cells, based on western blot analysis (Fig. 4d). Additional evidence to support this conclusion was obtained from immunocytochemical analysis of leukemia cells treated with Az (Fig. 4d).
Western blot analysis. […] peroxidase-conjugated goat anti-rabbit IgG (1:2000, Santa Cruz Bio Technology) and goat anti-mouse IgG (1:2000, Santa Cruz Bio Technology) were used as the secondary antibodies. The blots were developed by using a West-ZOL® plus Western Blot Detection System (Intron Biotechnology Inc., South Korea). Western blot signals were analyzed by using a G:BOX Chemi Fluorescent & Chemiluminescent Imaging System.
Immunocytochemistry. […] Cell images were analyzed using the ZEN 2011 software.
In general terms: A western blot detects proteins with antibodies after separation by electrophoresis.

In assay [6] the test system is HL-60 and K562 cells. Description: Flow cytometry, fluorescein-annexin V and PI staining. To be noted: 24 h; 10 µM Az, 10 µM GD or 4 µM Az-O3-GD. The class given is cell-based, human. The protocol:
as §2
HL-60 and K562 cells were incubated with each compound for 24 h in culture media. Cells were re-suspended with 500 μL binding buffer (10 mM HEPES, […] and 2.5 mM CaCl2, pH 7.5) and then incubated with the FITC-annexin V apoptosis detection kit with PI according to the protocol provided by the manufacturer. Flow cytometry was carried out by using a BD FACSVerse™ instrument (BD Biosciences) and the data were analyzed by using a FlowJo™ software (BD Biosciences).

Assay [7] deals with K562 cells. Description: MTT assay, cell viability of K562 cells. The class given is cell-based. To be noted: Homo sapiens, 48 h, mean ± s.d., n = 3, read-out: IC50 values of compounds for leukemia cells.
In assay [8] the test system is THP-1 cells. Description: MTT assay, cell viability of THP-1 cells. The class given is cell-based. The settings on record: Homo sapiens, 48 h, mean ± s.d., n = 3, read-out: IC50 values of compounds for leukemia cells.
Assay [9] relates to human leukemia cells (HL-60, KG-1, THP-1, U937, Jurkat and K562 cells). Description: MTT assay, all tested leukemia cells (summary statements). To be noted: Homo sapiens, 48 h, read-out: IC50 values, cytotoxic activities toward all the tested leukemia. The protocol:
To assess anti-leukemia activity of Az, several human leukemia cells (HL-60 cells, acute myeloid leukemia; Jurkat cells, acute T-lymphocytic leukemia; KG-1 cells, acute myeloid leukemia; U937 cells, acute myeloid leukemia; THP-1 cells, acute monocytic leukemia; K562 cells, chronic myeloid leukemia) were incubated with Az for 48 h. […] An MTT assay was then performed to measure cell viabilities.
as §1

In the case of `COc1ccc(-c2nc(-c3cc(C(F)(F)F)cc(C(F)(F)F)c3)n(Cc3ccc(C(=O)NCCOCCOCCN)cc3)c2-c2ccc(OC)cc2)cc1` [Az, apoptozole], the IC50 (in general, the concentration that inhibits the measured activity by half) in [1] is 2.2 µM; in assay [2] it was 2.8 ± 0.87 µM; in assay [3], 4.7 ± 0.77 µM; in [7], 3.6 ± 0.52 µM; in [8] it was 3.7 ± 0.73 µM; in assay [9] it was 2 to 5 µM. Moreover, in assay [4], the “mitochondrial membrane potential, JC-1 red fluorescence” value is “reduction of the mitochondrial membrane potential”. Further, the “AIF translocation to the nucleus” value in assay [5] is “not observed”. In addition, the “apoptosis, annexin V binding and PI uptake” value in assay [6] is “positive annexin V binding and positive PI uptake; also recorded: induces apoptosis”.
